Test results from paper PMC10601436 (ACS Omega, 2023).
Peptide text beside a SMILES is read from it.

Biological target: hDPP-IV (Homo sapiens, UniProt P27487)
Test: DPP-IV inhibitory assay
Type: biochemical

hDPP-IV, sequence (P27487 whole entry): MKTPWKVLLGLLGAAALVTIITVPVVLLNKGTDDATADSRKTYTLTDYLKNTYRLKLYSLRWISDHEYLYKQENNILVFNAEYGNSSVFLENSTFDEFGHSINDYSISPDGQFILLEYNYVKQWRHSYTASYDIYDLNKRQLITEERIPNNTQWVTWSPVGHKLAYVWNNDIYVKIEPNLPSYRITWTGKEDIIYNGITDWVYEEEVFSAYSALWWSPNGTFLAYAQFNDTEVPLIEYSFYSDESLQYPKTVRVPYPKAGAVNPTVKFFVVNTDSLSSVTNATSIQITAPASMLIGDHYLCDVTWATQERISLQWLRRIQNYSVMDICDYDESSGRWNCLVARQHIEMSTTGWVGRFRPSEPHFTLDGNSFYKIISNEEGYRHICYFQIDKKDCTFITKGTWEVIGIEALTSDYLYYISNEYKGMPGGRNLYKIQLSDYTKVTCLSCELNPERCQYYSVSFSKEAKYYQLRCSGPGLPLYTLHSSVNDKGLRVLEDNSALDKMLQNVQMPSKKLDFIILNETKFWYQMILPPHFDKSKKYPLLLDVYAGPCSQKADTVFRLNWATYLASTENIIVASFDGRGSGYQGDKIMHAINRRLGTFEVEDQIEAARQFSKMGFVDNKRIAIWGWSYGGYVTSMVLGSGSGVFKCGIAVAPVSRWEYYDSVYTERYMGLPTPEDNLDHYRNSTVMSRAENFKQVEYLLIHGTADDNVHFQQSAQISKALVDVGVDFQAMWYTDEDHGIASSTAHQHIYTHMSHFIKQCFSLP

Structure (SMILES) | IC50
CC[C@H](C)[C@H](N)C(=O)N1CCC[C@H]1C(=O)N[C@H](C(=O)N1CCC[C@H]1C(=O)N[C@H](C(=O)O)[C@@H](C)CC)[C@@H](C)CC [IPIPI] (H-IPIPI-OH) | 47.5 µM
CC(C)[C@H](N)C(=O)N1CCC[C@H]1C(=O)N[C@H](C(=O)N1CCC[C@H]1C(=O)N[C@@H](CS)C(=O)O)C(C)C [VPVPC] (H-VPVPC-OH) | 54.8 µM
CC(C)[C@H](N)C(=O)N1CCC[C@H]1C(=O)N[C@H](C(=O)N1CCC[C@H]1C(=O)N[C@@H](Cc1c[nH]cn1)C(=O)O)C(C)C [VPVPH] (H-VPVPH-OH) | 51.1 µM
C[C@H](NC(=O)[C@H](C)NC(=O)[C@@H](N)Cc1c[nH]c2ccccc12)C(=O)O [WAA] (H-Trp-Ala-Ala-OH) | 275 µM
C[C@H](NC(=O)[C@@H](N)Cc1c[nH]c2ccccc12)C(=O)N[C@@H](CS)C(=O)O [WAC] (H-Trp-Ala-Cys-OH) | 283 µM
C[C@H](NC(=O)[C@@H](N)Cc1c[nH]c2ccccc12)C(=O)N[C@@H](CC(=O)O)C(=O)O [WAD] (H-Trp-Ala-Asp-OH) | 433 µM
C[C@H](NC(=O)[C@@H](N)Cc1c[nH]c2ccccc12)C(=O)N[C@@H](CCC(=O)O)C(=O)O [WAE] (H-Trp-Ala-Glu-OH) | 462 µM
C[C@H](NC(=O)[C@@H](N)Cc1c[nH]c2ccccc12)C(=O)N[C@@H](Cc1ccccc1)C(=O)O [WAF] (H-Trp-Ala-Phe-OH) | 153 µM
C[C@H](NC(=O)[C@@H](N)Cc1c[nH]c2ccccc12)C(=O)NCC(=O)O [WAG] (H-Trp-Ala-Gly-OH) | 352 µM
C[C@H](NC(=O)[C@@H](N)Cc1c[nH]c2ccccc12)C(=O)N[C@@H](Cc1c[nH]cn1)C(=O)O [WAH] (H-Trp-Ala-His-OH) | 190 µM
CC[C@H](C)[C@H](NC(=O)[C@H](C)NC(=O)[C@@H](N)Cc1c[nH]c2ccccc12)C(=O)O [WAI] (H-Trp-Ala-Ile-OH) | 199 µM
CC(C)C[C@H](NC(=O)[C@H](C)NC(=O)[C@@H](N)Cc1c[nH]c2ccccc12)C(=O)O [WAL] (H-Trp-Ala-Leu-OH) | 260 µM
CSCC[C@H](NC(=O)[C@H](C)NC(=O)[C@@H](N)Cc1c[nH]c2ccccc12)C(=O)O [WAM] (H-Trp-Ala-Met-OH) | 330 µM
C[C@H](NC(=O)[C@@H](N)Cc1c[nH]c2ccccc12)C(=O)N[C@@H](CC(N)=O)C(=O)O [WAN] (H-Trp-Ala-Asn-OH) | 302 µM
C[C@H](NC(=O)[C@@H](N)Cc1c[nH]c2ccccc12)C(=O)N1CCC[C@H]1C(=O)O [WAP] (H-Trp-Ala-Pro-OH) | 441 µM
C[C@H](NC(=O)[C@@H](N)Cc1c[nH]c2ccccc12)C(=O)N[C@@H](CCC(N)=O)C(=O)O [WAQ] (H-Trp-Ala-Gln-OH) | 289 µM
C[C@H](NC(=O)[C@@H](N)Cc1c[nH]c2ccccc12)C(=O)N[C@@H](CCCNC(=N)N)C(=O)O [WAR] (H-Trp-Ala-Arg-OH) | 665 µM
C[C@H](NC(=O)[C@@H](N)Cc1c[nH]c2ccccc12)C(=O)N[C@H](C(=O)O)[C@@H](C)O [WAT] (H-Trp-Ala-Thr-OH) | 296 µM
CC(C)[C@H](NC(=O)[C@H](C)NC(=O)[C@@H](N)Cc1c[nH]c2ccccc12)C(=O)O [WAV] (H-Trp-Ala-Val-OH) | 250 µM
C[C@H](NC(=O)[C@@H](N)Cc1c[nH]c2ccccc12)C(=O)N[C@@H](Cc1c[nH]c2ccccc12)C(=O)O [WAW] (H-Trp-Ala-Trp-OH) | 104 µM
C[C@H](NC(=O)[C@@H](N)Cc1c[nH]c2ccccc12)C(=O)N[C@@H](Cc1ccc(O)cc1)C(=O)O [WAY] (H-Trp-Ala-Tyr-OH) | 117 µM

Structure (SMILES) | IC50
C[C@H](NC(=O)[C@@H]1CCCN1C(=O)[C@@H](N)Cc1c[nH]c2ccccc12)C(=O)O [WPA] (H-Trp-Pro-Ala-OH) | 206 µM
N[C@@H](Cc1c[nH]c2ccccc12)C(=O)N1CCC[C@H]1C(=O)N[C@@H](CS)C(=O)O [WPC] (H-Trp-Pro-Cys-OH) | 739 µM
N[C@@H](Cc1c[nH]c2ccccc12)C(=O)N1CCC[C@H]1C(=O)N[C@@H](CC(=O)O)C(=O)O [WPD] (H-Trp-Pro-Asp-OH) | 481 µM
N[C@@H](Cc1c[nH]c2ccccc12)C(=O)N1CCC[C@H]1C(=O)N[C@@H](CCC(=O)O)C(=O)O [WPE] (H-Trp-Pro-Glu-OH) | 353 µM
N[C@@H](Cc1c[nH]c2ccccc12)C(=O)N1CCC[C@H]1C(=O)N[C@@H](Cc1ccccc1)C(=O)O [WPF] (H-Trp-Pro-Phe-OH) | 286 µM
N[C@@H](Cc1c[nH]c2ccccc12)C(=O)N1CCC[C@H]1C(=O)NCC(=O)O [WPG] (H-Trp-Pro-Gly-OH) | 135 µM
N[C@@H](Cc1c[nH]c2ccccc12)C(=O)N1CCC[C@H]1C(=O)N[C@@H](Cc1c[nH]cn1)C(=O)O [WPH] (H-Trp-Pro-His-OH) | 315 µM
CC(C)C[C@H](NC(=O)[C@@H]1CCCN1C(=O)[C@@H](N)Cc1c[nH]c2ccccc12)C(=O)O [WPL] (H-Trp-Pro-Leu-OH) | 461 µM
CSCC[C@H](NC(=O)[C@@H]1CCCN1C(=O)[C@@H](N)Cc1c[nH]c2ccccc12)C(=O)O [WPM] (H-Trp-Pro-Met-OH) | 219 µM
NC(=O)C[C@H](NC(=O)[C@@H]1CCCN1C(=O)[C@@H](N)Cc1c[nH]c2ccccc12)C(=O)O [WPN] (H-Trp-Pro-Asn-OH) | 129 µM
N[C@@H](Cc1c[nH]c2ccccc12)C(=O)N1CCC[C@H]1C(=O)N1CCC[C@H]1C(=O)O [WPP] (H-Trp-Pro-Pro-OH) | 303 µM
NC(=O)CC[C@H](NC(=O)[C@@H]1CCCN1C(=O)[C@@H](N)Cc1c[nH]c2ccccc12)C(=O)O [WPQ] (H-Trp-Pro-Gln-OH) | 196 µM
N=C(N)NCCC[C@H](NC(=O)[C@@H]1CCCN1C(=O)[C@@H](N)Cc1c[nH]c2ccccc12)C(=O)O [WPR] (H-Trp-Pro-Arg-OH) | 209 µM
N[C@@H](Cc1c[nH]c2ccccc12)C(=O)N1CCC[C@H]1C(=O)N[C@@H](CO)C(=O)O [WPS] (H-Trp-Pro-Ser-OH) | 588 µM
C[C@@H](O)[C@H](NC(=O)[C@@H]1CCCN1C(=O)[C@@H](N)Cc1c[nH]c2ccccc12)C(=O)O [WPT] (H-Trp-Pro-Thr-OH) | 435 µM
CC(C)[C@H](NC(=O)[C@@H]1CCCN1C(=O)[C@@H](N)Cc1c[nH]c2ccccc12)C(=O)O [WPV] (H-Trp-Pro-Val-OH) | 511 µM
N[C@@H](Cc1c[nH]c2ccccc12)C(=O)N1CCC[C@H]1C(=O)N[C@@H](Cc1c[nH]c2ccccc12)C(=O)O [WPW] (H-Trp-Pro-Trp-OH) | 183 µM
N[C@@H](Cc1c[nH]c2ccccc12)C(=O)N1CCC[C@H]1C(=O)N[C@@H](Cc1ccc(O)cc1)C(=O)O [WPY] (H-Trp-Pro-Tyr-OH) | 304 µM
C[C@H](NC(=O)[C@H](CCCNC(=N)N)NC(=O)[C@@H](N)Cc1c[nH]c2ccccc12)C(=O)O [WRA] (H-Trp-Arg-Ala-OH) | 535 µM
N=C(N)NCCC[C@H](NC(=O)[C@@H](N)Cc1c[nH]c2ccccc12)C(=O)N[C@@H](CS)C(=O)O [WRC] (H-Trp-Arg-Cys-OH) | 210 µM
N=C(N)NCCC[C@H](NC(=O)[C@@H](N)Cc1c[nH]c2ccccc12)C(=O)N[C@@H](CC(=O)O)C(=O)O [WRD] (H-Trp-Arg-Asp-OH) | 204 µM

Structure (SMILES) | IC50
N=C(N)NCCC[C@H](NC(=O)[C@@H](N)Cc1c[nH]c2ccccc12)C(=O)N[C@@H](CCC(=O)O)C(=O)O [WRE] (H-Trp-Arg-Glu-OH) | 160 µM
N=C(N)NCCC[C@H](NC(=O)[C@@H](N)Cc1c[nH]c2ccccc12)C(=O)N[C@@H](Cc1ccccc1)C(=O)O [WRF] (H-Trp-Arg-Phe-OH) | 257 µM
N=C(N)NCCC[C@H](NC(=O)[C@@H](N)Cc1c[nH]c2ccccc12)C(=O)NCC(=O)O [WRG] (H-Trp-Arg-Gly-OH) | 270 µM
N=C(N)NCCC[C@H](NC(=O)[C@@H](N)Cc1c[nH]c2ccccc12)C(=O)N[C@@H](Cc1c[nH]cn1)C(=O)O [WRH] (H-Trp-Arg-His-OH) | 277 µM
CC[C@H](C)[C@H](NC(=O)[C@H](CCCNC(=N)N)NC(=O)[C@@H](N)Cc1c[nH]c2ccccc12)C(=O)O [WRI] (H-Trp-Arg-Ile-OH) | 330 µM
CC(C)C[C@H](NC(=O)[C@H](CCCNC(=N)N)NC(=O)[C@@H](N)Cc1c[nH]c2ccccc12)C(=O)O [WRL] (H-Trp-Arg-Leu-OH) | 151 µM
CSCC[C@H](NC(=O)[C@H](CCCNC(=N)N)NC(=O)[C@@H](N)Cc1c[nH]c2ccccc12)C(=O)O [WRM] (H-Trp-Arg-Met-OH) | 897 µM
N=C(N)NCCC[C@H](NC(=O)[C@@H](N)Cc1c[nH]c2ccccc12)C(=O)N[C@@H](CC(N)=O)C(=O)O [WRN] (H-Trp-Arg-Asn-OH) | 313 µM
N=C(N)NCCC[C@H](NC(=O)[C@@H](N)Cc1c[nH]c2ccccc12)C(=O)N1CCC[C@H]1C(=O)O [WRP] (H-Trp-Arg-Pro-OH) | 742 µM
N=C(N)NCCC[C@H](NC(=O)[C@@H](N)Cc1c[nH]c2ccccc12)C(=O)N[C@@H](CCC(N)=O)C(=O)O [WRQ] (H-Trp-Arg-Gln-OH) | 286 µM
N=C(N)NCCC[C@H](NC(=O)[C@@H](N)Cc1c[nH]c2ccccc12)C(=O)N[C@@H](CO)C(=O)O [WRS] (H-Trp-Arg-Ser-OH) | 265 µM
C[C@@H](O)[C@H](NC(=O)[C@H](CCCNC(=N)N)NC(=O)[C@@H](N)Cc1c[nH]c2ccccc12)C(=O)O [WRT] (H-Trp-Arg-Thr-OH) | 556 µM
CC(C)[C@H](NC(=O)[C@H](CCCNC(=N)N)NC(=O)[C@@H](N)Cc1c[nH]c2ccccc12)C(=O)O [WRV] (H-Trp-Arg-Val-OH) | 541 µM
N=C(N)NCCC[C@H](NC(=O)[C@@H](N)Cc1c[nH]c2ccccc12)C(=O)N[C@@H](Cc1c[nH]c2ccccc12)C(=O)O [WRW] (H-Trp-Arg-Trp-OH) | 603 µM
N=C(N)NCCC[C@H](NC(=O)[C@@H](N)Cc1c[nH]c2ccccc12)C(=O)N[C@@H](Cc1ccc(O)cc1)C(=O)O [WRY] (H-Trp-Arg-Tyr-OH) | 297 µM
CC(C)[C@H](NC(=O)[C@@H](N)Cc1c[nH]c2ccccc12)C(=O)N[C@@H](C)C(=O)O [WVA] (H-Trp-Val-Ala-OH) | 341 µM
CC(C)[C@H](NC(=O)[C@@H](N)Cc1c[nH]c2ccccc12)C(=O)N[C@@H](CS)C(=O)O [WVC] (H-Trp-Val-Cys-OH) | 232 µM
CC(C)[C@H](NC(=O)[C@@H](N)Cc1c[nH]c2ccccc12)C(=O)N[C@@H](CC(=O)O)C(=O)O [WVD] (H-Trp-Val-Asp-OH) | 343 µM
CC(C)[C@H](NC(=O)[C@@H](N)Cc1c[nH]c2ccccc12)C(=O)N[C@@H](CCC(=O)O)C(=O)O [WVE] (H-Trp-Val-Glu-OH) | 193 µM
